Laboratory results from patent publication US20260234188A1, “CHEMOKINE-BINDING PEPTIDES” (Oxford University Innovation Limited, priority 2022, published 2026).
“Also recorded” adds a separate entry of the source.

system: panel of up to 42 human chemokines; assay: Phage-display next generation sequencing screen of overlapping hexadecapeptide libraries, chemokines displayed on streptavidin beads; assay type: binding; conditions: log2E greater than 5, chemokines named by first part of UniProt Entry Name
Text: FIG. 1. Exemplar results from phage display screens. Phage-display libraries were constructed and analysed as described in (McLaughlin, 2013) (Tonikian, 2007). […] FIG. 1A, CC chemokines against evasin A library. FIG. 1B, CXC chemokines against the evasin B library. FIG. 1C, CXC and CX3C chemokines against the viral chemokine binding protein library. FIG. 1D, CXC chemokines against the chemokine library. […] Identified hexadecapeptides were mapped to the position in the originating protein (x-axis) and to fold enrichment (log 2 E, left y-axis). Regions of interest (ROI) were defined where the cumulative residue log 2 E, (clog 2 E:r, right y-axis) exceeds the 95% upper confidence interval of the median clog 2 E:r for the entire protein (indicated as a horizontal dotted line in each panel). Proteins are referred to by their UniProt ID.
Hexadecapeptides were identified using a phage-display next generation sequencing approach (McLaughlin, 2013). Libraries containing a total of 55662 overlapping peptides (from the tick chemokine binding proteins shown in Tables 3A and 3B, the viral chemokine binding proteins shown in Table 3C, the human chemokines shown in Table 3 E, and the human/viral chemokine receptors and other chemokine-binding proteins shown in Table 3D) were first constructed, and then screened against a panel of up to 42 human chemokines, as shown in Table 3F.

Row | Substance | Chemokines Bound
1 | CR5171 (FGVVTSVITWLVAVFA) | CCL11, CCL17, and CCL18, CCL2, and CCL20, CCL22, and CCL25, CCL28, and X3CL1, CXL10, and CXL11, SDF1, and CXL13, CXL14, and IL8
2 | CR25165 (VLGLLLNSLALWVFAA) | CCL19, CCL2,; also recorded: CCL20, CCL28
3 | CR3302 (DLFIGIKIVYSFLWGI) | CCL1, CCL17,; also recorded: CCL18, CCL20,; also recorded: CCL22, CCL28,; also recorded: CXL10, CXL11,; also recorded: CXL13, IL8
4 | CR26850 (WVVVFQFQHIMVGLIL) | CCL1, CCL19, and CCL20, CCL28, and SDF1
5 | CR27514 (YLYVYLDIFSVVSVSL) | CCL1, CCL19, and SDF1
6 | CR27051 (YDLFIGIKIVYSFLWG) | CCL18, CCL2,; also recorded: CCL20, CCL25,; also recorded: CCL28, CXL10,; also recorded: CXL11, CXL14
7 | CR2340 (AYDLFIGIKIVYCFLW) | CCL15, CCL17, and CCL18, CCL19, and CCL20, CCL22, and CCL25, CCL28, and X3CL1, CXL10, and CXL11, SDF1, and CXL13, CXL14, and IL8
8 | CR4463 (ESLFAALVTLITSLFG) | CCL1, CCL17,; also recorded: CCL18, CCL2,; also recorded: X3CL1, CXL10,; also recorded: CXL11, IL8
9 | CR24367 (VCILVWLLAFCVSLPD) | CCL11, CCL17,; also recorded: CCL18, CCL19,; also recorded: CCL20, CCL22,; also recorded: CCL25, CCL28,; also recorded: CXL10, CXL11,; also recorded: SDF1, CXL13,; also recorded: CXL14, IL8
10 | CR5519 (FLGLMCSVWTHLGMAL) | CCL1, CCL18,; also recorded: CCL2, CCL22,
11 | CR24594 (VFLLSLVGNSLVLWVL) | CCL22, X3CL1, and CXL11, CXL13, and IL8
12 | CR24707 (VGALGNSLVILVYWYC) | CCL17, CCL18,; also recorded: CCL19, CCL20
13 | CR4712 (FAIVVAYFLSWGPYNF) | CCL18, CCL19,; also recorded: CCL20, CCL22,; also recorded: CCL25, SDF1
14 | CR26762 (WVASILSSILDTIFHK) | CCL17, CCL18,; also recorded: X3CL1, CXL10,; also recorded: CXL11, IL8
15 | CR4760 (FASFYLLDFILALVGN) | CCL22, CXL10,; also recorded: CXL11, SDF1,; also recorded: CXL13, IL8
16 | CR2290 (AWFLPIMYSIICFVGL) | CCL20, CCL22, and CCL25, CCL28, and X3CL1, CXL10, and CXL11, SDF1, and CXL13, CXL14, and IL8
17 | CR2439 (CALVTLITSLFGSIFK) | CCL17, CCL18, and CCL19, CCL20, and CXL10, SDF1, and CXL13, CXL14, and IL8
18 | CR5243 (FIGFFSGIFFIILLTI) | CCL17, CCL18,; also recorded: CCL19, CCL20,; also recorded: CCL22, CXL11,; also recorded: SDF1, CXL14
19 | CR498 (AFLWGIFPTVIFSYFY) | CCL17, CCL18,; also recorded: CCL19, CCL20,; also recorded: CCL25, CXL13
20 | CR26306 (VWLMAIVGTFLNVLVI) | CCL22, CXL11,; also recorded: CXL13
21 | CR5027 (FFSQLVYFIYHAVSSY) | CCL17, CCL18, and CCL20, CXL10, and CXL11, SDF1, and IL8
22 | CR26041 (VTSVITWLVAVFASVP) | CCL2, X3CL1,; also recorded: CXL11, IL8
23 | CR5262 (FILALVGNTLALWLFI) | CCL22, CCL28,; also recorded: SDF1, IL8
24 | CR23572 (TRFGVWLMSIVGTFLN) | CCL17, CCL18,; also recorded: CCL2, CCL20,; also recorded: CCL22, CCL25,; also recorded: X3CL1, IL8
25 | CR26521 (WGLALLFALPDFIFLS) | CCL15, CXL13, and IL8
26 | CR362 (AEIYEYLFFFSFFFLA) | CCL22, CXL11,; also recorded: CXL13
27 | CR25407 (VLYFIADEVYTVLLSW) | CCL15, CCL17, and CCL18, CCL19, and CCL20, CCL25, and X3CL1, CXL10, and CXL11, CXL13, and IL8
28 | CR26036 (VTSLLIWVISLLVSLP) | CCL28, X3CL1, and SDF1, CXL14, and IL8
29 | CR24702 (VFYSLLFVFSLLGNSL) | CCL17, CCL18, and CCL19, CCL20, and CCL22, CCL25, and CCL5, X3CL1, and CXL11, CXL14, and IL8

same assay, conditions: log2E greater than 5, chemokines named by first part of UniProt Entry Name, peptides binding complement C5a (control) excluded

Row | Substance | Chemokines Bound
30 | VP5438 (LIKAAILLLAGGLAES) | CCL17, CCL20,; also recorded: CCL25, CCL28,; also recorded: CCL5, CXL10
31 | CR9887 (ISLFAGVSFLINLSMD) | CCL17, CCL18,; also recorded: CCL25
32 | EB3974 (VGLCLSTEYTDFSEYP) | CXL10, SDF1,; also recorded: CXL14
33 | CR9587 (IMYSIIAFVGLLGNGL) | CCL17, CCL18,; also recorded: CCL20, CXL14
34 | VP10866 (VNASIAWFFDFGACRM) | X3CL1, CXL10,; also recorded: CXL11
35 | VP11559 (YLYILFLSCIIINGRD) | CXL10, CXL11,; also recorded: CXL13, IL8
36 | EB630 (DKKVGLCLSTEYTDFS) | CXL10, SDF1,; also recorded: CXL14
37 | CR5519 (FLGLMCSVWTHLGMAL) | CCL28, X3CL1,; also recorded: CXL10, CXL11,; also recorded: SDF1, CXL13,; also recorded: CXL14, IL8
38 | CR5738 (FLWGIFPTVIFSYFYV) | CCL18, CCL22, and CCL8, X3CL1, and CXL10, CXL11, and IL8
39 | CR6098 (FSIIAVFYFLLARAIS) | CCL17, CCL20,; also recorded: CCL22, CXL10,; also recorded: CXL11, CXL13,; also recorded: CXL14, IL8
40 | CR6324 (FTWNLVLSQFFSILAT) | CCL11, CCL28,; also recorded: X3CL1, CXL11,; also recorded: CXL13
41 | CR8496 (HWGWVLGDFLCKLLNM) | CCL11, CCL17, and CCL18, CCL19, and CCL20, CCL22, and CCL25, CCL28, and X3CL1, CXL10, and CXL11, SDF1, and CXL13, CXL14, and IL8
42 | CR7344 (GMGPGPWMNILWAWFI) | CCL1, CCL11,; also recorded: CCL17, CCL18,; also recorded: CCL19, CCL2,; also recorded: CCL20, CCL22,; also recorded: CCL25, CCL8,; also recorded: X3CL1, CXL10,; also recorded: CXL11, SDF1,; also recorded: CXL14, IL8
43 | EB3094 (SGNCTCYHEDGKKVGL) | CXL10, CXL11, and SDF1
44 | EB3975 (VGLCLSTEYTDFTKFP) | CXL10, CXL11,; also recorded: SDF1, CXL14
45 | EB1522 (GNSTEGRCIELIGDFD) | CXL11, SDF1,; also recorded: CXL14
46 | CR6605 (FYVAMFASLSFITEIA) | CXL10, CXL11, and IL8
47 | EB2359 (NDKKVGLCLSTEYTDF) | CXL10, CXL11,; also recorded: SDF1, CXL14
48 | CR8813 (IFFIILLTIDRYLAVV) | CCL17, CCL18,; also recorded: CCL20, CCL25,; also recorded: CCL28, CXL10,; also recorded: CXL11, CXL13,; also recorded: CXL14, IL8
49 | CR6212 (FSTFSGMLVYILLLPV) | CXL11, CXL13, and IL8
50 | CR6611 (FYVITLFASDFVLMWC) | CCL22, CCL25,; also recorded: X3CL1, CXL13
51 | CR9113 (IIFSYVVVFLVSWLPY) | CCL17, CCL20, and CCL22, CCL28, and X3CL1, CXL10, and CXL11, SDF1, and CXL13, CXL14, and IL8
52 | CR9432 (ILMFLSDFSFIFSSWA) | CCL1, CXL10,; also recorded: CXL11, SDF1,; also recorded: CXL14, IL8

same assay, conditions: log2E greater than 5, chemokines named by first part of UniProt entry name, C5a (control) binders excluded

Row | Substance | Chemokines Bound
53 | CR15077 (LYAHLAAAFLWVVVAV) | CCL18, CCL19,; also recorded: CCL20, CCL22,; also recorded: CCL25, CCL28,; also recorded: CXL10, CXL11,; also recorded: SDF1, IL8
54 | CR22658 (TENFEYDDLAEACYIG) | CCL17, CCL18,; also recorded: X3CL1
55 | CR11907: chemokine binding peptide of Table 5A used in FIG. 5 combinations (LDFILALVGNTLALWL) | CCL11, CCL18, and CCL2
56 | CR16988 (NVTFTGLIAAFSWFML) | CCL17, CCL18,; also recorded: CCL20, CCL22,; also recorded: CCL25, CCL28,; also recorded: CXL10, SDF1,; also recorded: CXL14
57 | CR20481 (SGIFFIILLTIDRYLA) | CCL1, CCL19,; also recorded: CCL20, CCL22,; also recorded: CCL25, CCL28,; also recorded: X3CL1, CXL10,; also recorded: CXL11, SDF1
58 | CR20486: chemokine binding peptide of Table 5A used in FIG. 5 combinations (SGIITSVLAWVTAILA) | CCL11, CCL2,; also recorded: CCL8, IL8
59 | CR2290 (AWFLPIMYSIICFVGL) | CCL1, CCL17,; also recorded: CCL18, CCL19,
60 | CR15967 (MVWANLLVFVVSFLPL) | CCL1, CXL10, and SDF1
61 | CR19826 (RVTLTSLAVWGLSLLF) | CCL17, CCL2,; also recorded: X3CL1, CXL14
62 | CR17126 (PCGIITSVLAWVTAIL) | CCL1, CCL20,; also recorded: CCL22, CCL28,; also recorded: X3CL1, CXL10,; also recorded: CXL11, SDF1,; also recorded: CXL14, IL8
63 | CK4643 (RITNIQCPKEAVIFKT) | CCL1, CCL19,; also recorded: CCL20
64 | CR13458 (LLSVLFTLYVSTLDFS) | CCL18, CCL2, and CCL20, CXL10, and CXL11, SDF1, and CXL13, CXL14, and IL8
65 | CR1005 (ALAFIYVLMFLSNAIG) | CCL19, CCL2,; also recorded: CCL20, CCL28,; also recorded: CXL14
66 | CR11720 (LATFKILICIVWGVMP) | CCL17, CCL18,; also recorded: CCL19, CCL20,; also recorded: CCL25, CXL10,; also recorded: CXL14
